From PubChem BioAssay AID1963976 (Molecular Pharmacology Branch, DTP, NCI, 2024)
Where “and” joins values, the source holds several entries; their conditions need not be identical. Identical values can stand only once.

Tested on: 435261-313-R-J1-PDC tumor spheroid viability
Experiment: Anticancer human tumor 435261-313-R-J1-PDC patient-derived colon adenocarcinoma cell line growth inhibition [PI3K]
Conditions: spheroids with HUVEC and MSC; for viability, T/C: stronger effect = lower value
In short: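 Stroma-containing spheroids: tumor line, pooled-donor HUVEC, hMSC. Treatments: targeted agents with PI3K inhibitors. Dosing: clinically relevant, half-log spacing, 10 microM ceiling without known Cmax. Read-out: cell viability.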

[1] = curve of first compound, second compound 0.0316 µM
[2] = curve of first compound, second compound 0.1 µM
[3] = curve of first compound, second compound 0.316 µM
[4] = curve of first compound, second compound 1 µM
[5] = second compound 0.0316 µM, first compound 0.0316 µM
[6] = second compound 0.0316 µM, first compound 0.1 µM
[7] = second compound 0.1 µM, first compound 0.0316 µM
[8] = second compound 0.1 µM, first compound 0.1 µM
[9] = second compound 0.316 µM, first compound 0.0316 µM
[10] = second compound 0.316 µM, first compound 0.1 µM
[11] = second compound 1 µM, first compound 0.0316 µM
[12] = second compound 1 µM, first compound 0.1 µM
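Also: spheroids exposed to compounds for 7 days.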

Cn1ncc(Cl)c1-c1cc(C(=O)NC(CN)Cc2cccc(F)c2)sc1Cl (stereo not drawn) + CC(Nc1ncnc2nc[nH]c12)c1cc2cccc(Cl)c2c(=O)n1-c1ccccc1
IC50 [1]: 1400 nM
IC50 [2]: 527 nM
IC50 [3]: 565 nM
IC50 [4]: 863 nM
IC50 (curve of first compound, second compound 3.16 µM): 679 nM
IC50 (curve of first compound, second compound 10 µM): 155 nM
viability, T/C [5]: 95.1%
viability, T/C [6]: 74.4%
viability, T/C (second compound 0.0316 µM, first compound 0.316 µM): 75.1%
viability, T/C (second compound 0.0316 µM, first compound 1 µM): 63.1%
viability, T/C (second compound 0.0316 µM, first compound 3.16 µM): 27.8%
viability, T/C (second compound 0.0316 µM, first compound 10 µM): 14.2%
viability, T/C [7]: 86.6%
viability, T/C [8]: 96.7%
viability, T/C (second compound 0.1 µM, first compound 0.316 µM): 50%
viability, T/C (second compound 0.1 µM, first compound 1 µM): 39.9%
viability, T/C (second compound 0.1 µM, first compound 3.16 µM): 23.9%
viability, T/C (second compound 0.1 µM, first compound 10 µM): 9.05%
viability, T/C [9]: 106%
viability, T/C [10]: 58.1%
viability, T/C (second compound 0.316 µM, first compound 0.316 µM): 87.8%
viability, T/C (second compound 0.316 µM, first compound 1 µM): 26.8%
viability, T/C (second compound 0.316 µM, first compound 3.16 µM): 22.5%
viability, T/C (second compound 0.316 µM, first compound 10 µM): 10.6%
viability, T/C [11]: 94.7%
viability, T/C [12]: 82.9%
viability, T/C (second compound 1 µM, first compound 0.316 µM): 70.8%
viability, T/C (second compound 1 µM, first compound 1 µM): 47.7%
viability, T/C (second compound 1 µM, first compound 3.16 µM): 25.6%
viability, T/C (second compound 1 µM, first compound 10 µM): 15.7%
viability, T/C (second compound 3.16 µM, first compound 0.0316 µM): 87.3%
viability, T/C (second compound 3.16 µM, first compound 0.1 µM): 81.8%
viability, T/C (second compound 3.16 µM, first compound 0.316 µM): 66.8%
viability, T/C (second compound 3.16 µM, first compound 1 µM): 40.5%
viability, T/C (second compound 3.16 µM, first compound 3.16 µM): 21.9%
viability, T/C (second compound 3.16 µM, first compound 10 µM): 9.23%
viability, T/C (second compound 10 µM, first compound 0.0316 µM): 62.1%
viability, T/C (second compound 10 µM, first compound 0.1 µM): 62.8%
viability, T/C (second compound 10 µM, first compound 0.316 µM): 35%
viability, T/C (second compound 10 µM, first compound 1 µM): 27.5%
viability, T/C (second compound 10 µM, first compound 3.16 µM): 22.1%
viability, T/C (second compound 10 µM, first compound 10 µM): 6.29%

C[C@@H](NC(=O)c1ncnc(N)c1Cl)c1ncc(C(=O)Nc2cc(C(F)(F)F)c(Cl)cn2)s1
viability, T/C (compound 0.0316 µM): 133% and 131% and 118%
viability, T/C (compound 0.1 µM): 127% and 106% and 111%
viability, T/C (compound 0.316 µM): 154% and 79.3% and 153%
viability, T/C (compound 1 µM): 151% and 130% and 124%
viability, T/C (compound 3.16 µM): 146% and 120% and 129%
viability, T/C (compound 10 µM): 120% and 114% and 88.1%
IC50 (curve of compound): > 10000 nM

CCCS(=O)(=O)Nc1ccc(F)c(C(=O)c2c[nH]c3ncc(-c4ccc(Cl)cc4)cc23)c1F
viability, T/C (compound 0.0316 µM): 77% and 97.8%
viability, T/C (compound 0.1 µM): 91% and 84.7%
viability, T/C (compound 0.316 µM): 110% and 111%
viability, T/C (compound 1 µM): 120% and 96.2%
viability, T/C (compound 3.16 µM): 88.7% and 98.1%
viability, T/C (compound 10 µM): 5.61% and 4.11%
IC50 (curve of compound): 5400 nM and 5680 nM

CC(C)n1nc(-c2ccc3oc(N)nc3c2)c2c(N)ncnc21 + COc1c(OCCCN2CCOCC2)ccc2c3n(c(=NC(=O)c4cnc(N)nc4)nc12)CCN3
IC50 (curve of first compound, second compound 0.00316 µM): 11.8 nM
IC50 (curve of first compound, second compound 0.01 µM): 1.34 nM
IC50 [1]: < 0.316 nM
IC50 [2]: < 0.316 nM
IC50 [3]: < 0.316 nM
IC50 [4]: < 0.316 nM
viability, T/C (second compound 0.00316 µM, first compound 0.000316 µM): 66.9%
viability, T/C (second compound 0.00316 µM, first compound 0.001 µM): 47.5%
viability, T/C (second compound 0.00316 µM, first compound 0.00316 µM): 74.6%
viability, T/C (second compound 0.00316 µM, first compound 0.01 µM): 51.4%
viability, T/C (second compound 0.00316 µM, first compound 0.0316 µM): 27.4%
viability, T/C (second compound 0.00316 µM, first compound 0.1 µM): 12.1%
viability, T/C (second compound 0.01 µM, first compound 0.000316 µM): 48.1%
viability, T/C (second compound 0.01 µM, first compound 0.001 µM): 56.3%
viability, T/C (second compound 0.01 µM, first compound 0.00316 µM): 46.8%
viability, T/C (second compound 0.01 µM, first compound 0.01 µM): 32.2%
viability, T/C (second compound 0.01 µM, first compound 0.0316 µM): 21.7%
viability, T/C (second compound 0.01 µM, first compound 0.1 µM): 10.8%
viability, T/C (second compound 0.0316 µM, first compound 0.000316 µM): 25.7%
viability, T/C (second compound 0.0316 µM, first compound 0.001 µM): 22.9%
viability, T/C (second compound 0.0316 µM, first compound 0.00316 µM): 24%
viability, T/C (second compound 0.0316 µM, first compound 0.01 µM): 19.4%
viability, T/C [5]: 16.4%
viability, T/C [6]: 9.19%
viability, T/C (second compound 0.1 µM, first compound 0.000316 µM): 16.6%
viability, T/C (second compound 0.1 µM, first compound 0.001 µM): 14.2%
viability, T/C (second compound 0.1 µM, first compound 0.00316 µM): 14%
viability, T/C (second compound 0.1 µM, first compound 0.01 µM): 13.6%
viability, T/C [7]: 10.3%
viability, T/C [8]: 5.04%
viability, T/C (second compound 0.316 µM, first compound 0.000316 µM): 8.4%
viability, T/C (second compound 0.316 µM, first compound 0.001 µM): 7.74%
viability, T/C (second compound 0.316 µM, first compound 0.00316 µM): 6.9%
viability, T/C (second compound 0.316 µM, first compound 0.01 µM): 6.3%
viability, T/C [9]: 4.52%
viability, T/C [10]: 2.1%
viability, T/C (second compound 1 µM, first compound 0.000316 µM): 4.2%
viability, T/C (second compound 1 µM, first compound 0.001 µM): 4.04%
viability, T/C (second compound 1 µM, first compound 0.00316 µM): 3.72%
viability, T/C (second compound 1 µM, first compound 0.01 µM): 3.28%
viability, T/C [11]: 3.57%
viability, T/C [12]: 2.22%
